# Results: patent US11911417B2, “Nerve growth promoter and method for producing same, internal preparation, medium additive, cell dilution additive, medium, cell dilution, antioxidant and method for producing same, external preparation, and wound treatment agent and method for producing same” (LAIMU CORPORATION, priority 2016, dated 2024)
# Assay: radical trapping test (ABTS radical cations)
# Settings: 20 μM, 5 to 120 minutes, FIG. 5
# Protocol: The antioxidant 1 (freeze-dried powder of protease degradation product) produced was evaluated for the radical trapping activity against ABTS radical cations (unnatural model radical), according to the spectrophotometric method described in Biol. Pharm. Bull., 29, 766-771 (2006). Specifically, the antioxidant 1 was added to 3 mL of a reaction solution containing ABTS radical cations to be a final concentration of 300 μg/mL, and at the time after 5 minutes, 15 minutes, 30 minutes, 60 minutes and 120 minutes, the residual ratio of the ABTS radical cations was determined. For comparison, a system added with ascorbic acid or arbutin in an amount of 20 μM each in place of the antioxidant 1, and a system added with water in the same amount as that of the antioxidant 1 (control) were tested in the same manner.
row,SMILES,course of the radical residual ratio with the lapse of time
1,OC[C@H]1O[C@@H](Oc2ccc(O)cc2)[C@H](O)[C@@H](O)[C@@H]1O [arbutin],did not change after further lapse of time
2,O=C1O[C@H]([C@@H](O)CO)C(O)=C1O [ascorbic acid],did not change after further lapse of time
